Like-named read-outs stand apart in the source and are kept apart here.
Experiments:
A549 lung cancer cells = settings: for Tumour Growth Inhibition (TGI): A549 tumours in nude mice, cisplatin 5 mg/kg; for Tumour Growth Inhibition (TGI) / mean tumour volume on day 21: oltipraz 100 mg/kg; for mean tumour volume on day 1: day 1 (initiation of treatment); for mean tumour volume on day 21: cisplatin 5 mg/kg day 2, vehicle control 536 mm^3
Method: (§1) Initiation of treatment was designated day 1.
A549 human lung cancer cells were obtained from ATCC. These cells were grown in F-12 supplemented with 10% Fetal Calf Serum (FCS), penicillin and streptomycin, and 2 mM L-Glutamine. Cells were sub-cultured by removing the medium, rinsing twice with sterile calcium-free and magnesium-free phosphate buffered saline (PBS) and adding 1 to 2 ml of 0.25% trypsin and 0.03% EDTA solution. The flask was allowed to sit at 37° C. until the cells detached. Cells were then sub-cultured at a ratio of 1:3.
(§2) Animals were acclimatized prior to study commencement.
Tumours were measured once every two days with micro-calipers, and tumour volume was calculated as (length×width)^3π/3. The tumour growth index (TGI) was calculated using the formula 100−(Vc*100/Vt), where Vc is the mean volume of the tumours in the control group and Vt is the mean volume of the tumours in the test group.
Tumour volumes were calculated from the length and width measurements taken on alternating days by calculating the mean radius (r), which was the sum of length and width divided by 4, and using the formula 4/3 πr^3 to calculate the volume.

[1] = oltipraz 100 mg/kg po days 1, 3, 8, 10, given with Cetuximab
From the text: as §1, §2
Groups were compared using the One-Way ANOVA method.

[2] = formulated with CMC

SMILES | Tumour Growth Inhibition (TGI) (A549 lung cancer cells) [%] | mean tumour volume on day 1 (A549 lung cancer cells) [mm^3] | mean tumour volume on day 21 (A549 lung cancer cells) [mm^3] | average weight gain, % of starting weight by day 21 (female nude mice with A549 tumours, cisplatin 5 mg/kg sc day 2, oltipraz 100 mg/kg po (alone days 1, 3, 8, 10; combination days 1 and 3), day 21) [%] | toxicity based on observations of survival and weight change (oltipraz alone 100 mg/kg po days 1, 3, 8, 10) | toxicity based on observations of survival and weight change [1] | amount that can be administered without significant toxicity resulting [2]
N.N.[Cl][Pt][Cl] [cisplatin, cis-diamminedichloridoplatinum(II)] | 48.8 | 93 | 275 | – | – | – | –
Cc1c(-c2cnccn2)ssc1=S [oltipraz, 4-methyl-5(2-pyrazinyl)-3H-1,2-dithiole-3-thione] | 62.3 | 93 | 200 | 4.9 | no evidence of toxicity | no evidence of toxicity | up to 2000 mg/kg

Source: patent publication US20110142829A1, “ANTI-TUMOUR COMPOSITIONS AND METHODS” (priority 2008, published 2011)
